The source of these data is a melting point compilation (Tetko et al.; mined from patent text by program, amines drawn as free bases though some values may be those of a salt).

As a reminder, the melting point is the temperature of the solid-liquid transition. In turn, `O=C(Cn1cc(-c2ccccc2)cc(NC(=O)OCc2ccccc2)c1=O)NC(Cc1ccccc1)C(=O)C(F)(F)F` (stereo unspecified) came in with a melting point of 147 to 151 °C.

As for `Cc1cc(C)c(Nc2nc(C)ncc2S(=O)(=O)c2ccc(OCc3ccccc3)cc2)c(C)c1`, the melting point lay within 166 to 168 °C.

The molecule `O=C(N[C@H]1CC[C@H](CCN2CCN(c3nccc4c3CCO4)CC2)CC1)C1CCC1` yielded a melting point of 202 °C.

The molecule `C#Cc1cccc(OCc2ccc(OC)cc2)c1` showed a melting point of 92 to 95 °C.

As for `COc1ccc(SCCCC(=O)O)cc1OC`, the melting point stood at 78 °C.

The molecule `COc1ccc([C@@H]2OC(=O)[C@H](Cc3ccccc3)N2C(=O)OCc2ccccc2)cc1` showed a melting point of 85 °C.

Molecule `CC(C)(O)C(=O)Nc1ccc(Nc2ccccc2)cc1` had a melting point of 171 to 174 °C.

In the case of `[N-]=[N+]=NC1CC(n2cc(I)c(=O)[nH]c2=O)OC1CO` (stereo unspecified), the melting point fell in the range of 126 to 130 °C.

In turn, `COc1cc(Nc2c(C#N)cnc3cc(-c4ccc(CN5CCN(C)CC5)cc4)sc23)cc(OC)c1OC` had a melting point of 189 to 191 °C.

Take `O=C(O)c1ccc2c(c1)Sc1cc3c(cc1C=C2)CCC3`: the melting point lay in the range of 103 to 104 °C.

As for `CCOc1ccc(C(=O)C2CC2)cc1`, the melting point was 67 to 70 °C.

In turn, `CC(=O)/C=C(\C)c1ccc(C2CCCC2)cc1` gave a melting point of 33 to 33.5 °C.

The molecule `COc1cc2c(cc1OC)C1C(CO)CSC(C=N)N1CC2` (stereo unspecified) returned a melting point of 149 to 151 °C.

`C1=C(c2ccc(-n3ccnc3)cc2)CCNC1` showed a melting point of 150 to 153 °C.

`CNC(=O)N1N=C(c2ccc(N)cc2)c2cc(Cl)ccc2CC1C` (stereo unspecified) returned a melting point of 115 to 118 °C.

`Nc1ccc(Br)cc1CC1NC(=O)NC1=O` (stereo unspecified): the melting point was greater than 310 °C.

Take `FCc1cccc(C#CCCn2cc(-c3ccc(F)cc3)nn2)n1`: the melting point is 100 to 103 °C.

As for `Cn1c(C(F)(F)F)cc(=O)n(-c2ccc([N+](=O)[O-])cc2F)c1=O`, the melting point is 135 to 136 °C.

On to `CS(=O)(=O)Nc1cccc2c(O)ccc(N=Nc3cccc(S(=O)(=O)NCCCCCCBr)c3)c12`, for which the melting point lay in the range of 163 to 165 °C.

In turn, `O=C(O)COc1ccc(Br)cc1C(=O)NCc1ccc(Br)cc1F` gave a melting point of 153 to 155 °C.

The molecule `COc1ncnc2cc(Br)sc12` had a melting point of 111 to 113 °C.

Regarding `N#Cc1c[nH]c2cccc(OCc3ccccc3)c12`, the melting point fell in the range of 139 to 141 °C.

As for `COc1cc(OC)cc(N2CCN(C(=S)Nc3nc(C)c(C)nc3OC)CC2)c1`, the melting point is 71 to 73 °C.

`CC(C)(C)c1ccc(N)cn1`: the melting point was 61.5 to 62.7 °C.

`CC#CCOc1ccc(S(=O)(=O)NC(C(=O)O)c2ccc(OCCN3CCCC3)cc2)cc1` (stereo unspecified) gave a melting point of 245 to 247 °C.

Molecule `Clc1ccccc1-c1cc(-c2ccccc2)c(-c2ccccc2Cl)nn1` displayed a melting point of 176 to 178 °C.

Molecule `CN1CCN(C(=O)Oc2ccc([N+](=O)[O-])cc2)CC1` gave a melting point of 134 to 135 °C.

The molecule `CSC[C@H](NCc1cc(Br)ccc1N)C(=O)O` returned a melting point of 228 °C.

In the case of `CCOC(=O)C1C(c2ccc(OC)cc2)=NCC1c1ccc2c(c1)OCO2` (stereo unspecified), the melting point lay within 80 to 81 °C.

Regarding `CCCC(=O)Nc1cc(Cl)c(O)c(Cl)c1`, the melting point fell in the range of 146 to 147 °C.

`COc1cccc(-n2c(=O)[nH]c3c(C(N)=O)nc(-c4cccc(O)c4)nc32)c1F` had a melting point greater than 260 °C.

Turning to `COc1ccc(COC(=O)C(N)CCCCNC(=O)OC(C)(C)C)cc1` (stereo unspecified), the melting point lay within 118 to 120 °C.

As to `N#Cc1cccc(C2=Nc3ccc(-c4cccc(F)c4)cc3NC(=O)C2)c1`, the melting point lay in the range of 232 to 235 °C.

Molecule `C[Si](C)(C)C(CN)CC(=O)O` (stereo unspecified) registered a melting point of 199 to 201 °C.

`Cc1ccc(Cc2cnc(NCCCCc3ncc(Cl)cc3C)[nH]c2=O)cn1`: the melting point lay in the range of 140 to 141 °C.

Molecule `COc1ccc(C2CC3(C)C(CC45OCCOC43OCCO5)C3CC(C)C4(O)CCCCC4C23)cc1` (stereo unspecified) came in with a melting point of 168 to 169 °C.

`CC1(C)CC(SCc2c(F)cccc2F)=NO1`: the melting point lay in the range of 77 to 80 °C.

On to `Cc1nc(N(C)C)ccc1N1CCCn2c1nc1c(Cl)ccc(C(OC(F)F)C(F)(F)F)c12` (stereo unspecified), for which the melting point lay in the range of 233 to 235 °C.

Molecule `Cn1nccc1COc1nn2c(-c3ccccc3F)nnc2cc1C1CCC1` came in with a melting point of 184 to 186 °C.

`CC(CN1CC(=O)N(CN2CCSCC2)C(=O)C1)N1CC(=O)NC(=O)C1` (stereo unspecified) gave a melting point of 206 to 208 °C.

For `COC(=O)c1cccc(Nc2nccc(-c3sc(N)nc3-c3ccccc3)n2)c1`, the melting point was in the range of 223 to 225 °C.

As to `O=C(CCl)N1CCOc2ccccc21`, the melting point lay within 107 to 108 °C.

Turning to `OCC1OC(n2c(Br)nc3cc(Cl)c(Cl)cc32)C(O)C1O` (stereo unspecified), the melting point was 169 °C.

`Clc1ccc2c(c1)C(=C1CCN(CC3CCC3)CC1)c1ccccc1S2`: the melting point fell in the range of 180 to 182 °C.

`CCOC(=O)c1ccc(O)c(F)c1` showed a melting point of 79 to 80 °C.

`CC1(C)OC(=O)Nc2ccc(-c3cc(C(F)(F)F)cc(C(F)(F)F)c3)cc21`: the melting point fell in the range of 258 to 260 °C.

`CC(=O)c1c(Cl)n(C)c2ccccc12` had a melting point of 180 °C.

In turn, `Cc1cc(C(N)=O)ncc1C(c1c(F)ccc(F)c1F)S(=O)(=O)CCC(C)(C)C` (stereo unspecified) returned a melting point of 143 to 144 °C.

`COc1ccc(Nc2nc(NCCN)nc(NC3CCCCCC3)n2)cc1Cl`: the melting point came to 77 °C.

`CC(=NO)c1cc2c3ccccc3[nH]c(=O)n2n1`: the melting point fell in the range of 340 to 342 °C.

`COC(=O)c1cc(Cl)cc(I)c1O` registered a melting point of 143 to 145 °C.

On to `CCN(C)C(=O)c1cnn(-c2ccc(Cl)cc2)c1-c1ccc(OC)c(OC)c1`, for which the melting point is 110 °C.

In turn, `O=[N+]([O-])c1cccc2c1nnn2SC(Cl)(Cl)Cl` gave a melting point of 136 to 138 °C.

`CCOC(=O)C(C)=NNc1ccc(F)cc1F` gave a melting point of 153 to 156 °C.

The molecule `CC(=O)SCCc1ncn(C(c2ccccc2)(c2ccccc2)c2ccccc2)n1` yielded a melting point of 135 to 140 °C.

`Cn1ncnc1COc1nc2c(cc1-c1cccs1)nnn2-c1ccccc1F` returned a melting point of 160 to 162 °C.

In turn, `CC(C)(C)COC(=O)c1cc(Cl)c(F)c(Cl)c1` had a melting point of 96 to 98 °C.

The molecule `CSc1sc(-c2ncn(C)n2)c2c1C(=O)CC(C)(C)C2` gave a melting point of 146 to 148 °C.

The molecule `O=C1C(c2c[nH]c3ncccc23)=C(c2cn(S(=O)(=O)c3ccccc3)c3ccccc23)C(=O)N1COCc1ccccc1` gave a melting point of 94 to 96 °C.

In turn, `CCCCOC(=O)CCC(C)(c1ccc(O)c(C(C)(C)C)c1)c1ccc(O)c(C(C)(C)C)c1` gave a melting point of 123 °C.

Regarding `NC(=O)c1snc(Cl)c1Cl`, the melting point was in the range of 156 to 158 °C.

On to `O=C(Nc1ccc(Oc2ccc(Br)cc2)nc1)c1ccccc1C(c1ccc(O)cc1)c1ccc(O)cc1`, for which the melting point lay within 218 to 223 °C.

For the molecule `Clc1ccc(N2CCC3(CCNCC3)CC2)cc1`, the melting point fell in the range of 95.5 to 97.4 °C.

As for `COc1ccc2cc3[nH]cc(C#N)c(=O)c3cc2c1`, the melting point is greater than 260 °C.

As to `CS(=O)(=O)Nc1ccc2c(c1)c(C(=O)C(=O)NC1=CC(=O)OC1)cn2Cc1ccc(C(F)(F)F)cc1`, the melting point lay within 267 to 269 °C.

On to `CCc1cc2c(SCc3ccccc3)ncnc2s1`, for which the melting point fell in the range of 54 to 60 °C.

Take `CN(C)CCCn1c(=O)c(C#N)c(N2CCN(C(=O)c3cccs3)CC2)c2cccnc21`: the melting point was 176 °C.

Molecule `COC(=O)c1ccc(NC(=O)C(F)(F)F)c(C(=O)OC)c1` displayed a melting point of 239 °C.

The molecule `Cc1nc(-c2cccc(C(=O)N[C@H]3CC[C@H](CCN4CCN(c5nccc6c5CCO6)CC4)CC3)c2)no1` had a melting point of 218 °C.

In the case of `O=[N+]([O-])c1c(Br)nn(Cc2ccc(Cl)cc2)c1NCc1ccccc1`, the melting point was in the range of 139 to 141 °C.

Regarding `CC(=O)Oc1ccccc1C(=O)NC(O)C(Cl)(Cl)Cl` (stereo unspecified), the melting point was 124 to 126 °C.

Turning to `CC(C)(OCc1nn(Cc2ccccc2)c2ccccc12)C(=O)Nc1ccccn1`, the melting point was in the range of 121 to 122 °C.

As to `ON=C1c2ccccc2C2CC2c2ccccc21` (stereo unspecified), the melting point was determined as 201 °C.

`O=C(Nc1cc2ncc(CN3CCCC3)cc2cc1F)c1ccc(-c2ccc(Cl)cc2)cc1` came in with a melting point of 218 to 220 °C.

`COC(=O)C(C)(C)Cc1[nH]c2cc(OC)ccc2c1SC(C)(C)C` gave a melting point of 133 °C.

Turning to `CC(C)(C)OC(=O)N1CCC[C@H]1C(=O)O[C@H]1CO[C@H]2[C@H]1OC[C@H]2O[N+](=O)[O-]`, the melting point was 109 to 111 °C.

Turning to `Cc1nn2ccccc2c1C(=O)c1cccnc1`, the melting point is 89 to 90 °C.

For `CNC1(CC2CCCCC2)C(=O)Nc2ccc(Cl)cc21` (stereo unspecified), the melting point lay in the range of 168 to 169 °C.

Take `O=C1CCC(c2ccc3c(c2)C2(CC2)C(=O)N3)=NN1`: the melting point lay within 256 to 257 °C.

Molecule `CCOC(=O)C1=C(CCCc2ccccc2)NC(C)=C(C(=O)OC)C1c1cccc([N+](=O)[O-])c1` (stereo unspecified) had a melting point of 125 to 127 °C.

Consider `O=C1Nc2ccccc2C12COc1cc3c(cc12)OCCCO3` (stereo unspecified), for which the melting point lay in the range of 235 to 236 °C.

As for `O=C1N[C@@H](C(=O)O)CCCCCC[C@@H]1CS` (relative stereo), the melting point is 180 to 185 °C.

In turn, `O=C(CCCCC1CCSS1)N1CCSC1` (stereo unspecified) came in with a melting point of 40 to 41 °C.

`O=C(Nc1cc(Cl)ccc1S(=O)(=O)c1ccccc1)N[C@@H](Cc1ccc(NC(=O)c2c(Cl)cncc2Cl)cc1)C(=O)O` came in with a melting point of 204 °C.

On to `CCOC(=O)CN(SN(C)C(=O)Oc1cccc2c1OC(C)(C)C2)c1ccccc1`, for which the melting point is 92 to 93 °C.

`COc1ccccc1NC(=O)Nc1nc(N2CCCCC2)nc(N(CCC(=O)O)Cc2ccc(Cl)c(Cl)c2)n1` returned a melting point of 111 to 115 °C.

`COc1ccccc1C1SCCCS1` gave a melting point of 127 to 128 °C.

For `COc1cc(-c2cc3ccccc3[nH]2)ccc1OS(=O)(=O)c1ccccc1`, the melting point is 156 °C.

`COc1cc(CO)cc2c(Br)ccc(OC(C)C)c12` registered a melting point of 120 to 121 °C.

`CC(C)(S)CN1CCN(c2ccccn2)CC1` gave a melting point of 108 to 110 °C.

Molecule `COCOc1cccc2c(Br)cccc12` showed a melting point of 49 to 50 °C.
